# Assays:
# [1] = Stability in an aqueous solution of a formulation containing sodium bicarbonate (HPLC); type: physicochemical; conditions: for reduction of amount of Compound A: 6 hours at 25° C.
# Experimental: Multiple vials were prepared and amounts of Compound A and sodium bicarbonate indicated in Table 5 were weighed and filled in each vial. Thereto was added physiological saline (100 ml). Amounts of Compound A and its degradation, Compounds B and C were measured just after dissolution and after preservation for 6 hours at 25° C.
# • column: SUMIPAX ODS-A212 (silica gel binding with octadecyl group, • particle size: 5 μm; 6.0 mmφ×15 cm) • detector: ultraviolet spectrophotometer (wavelength: 220 nm) • column temperature: constant temperature around at 25° C. • mobile phase: A solution; 5 mmol/L phosphate buffer (pH7) and acetonitrile (300:23), B solution: acetonitrile • flow rate: 1.0 mL/min. • gradient condition: as shown in Table 6
# The numbers described in columns of “just after dissolution” and “after preservation for 6 hours at 25° C.” on Table 8 show area % per total peaks which appear until 55 minutes under the above HPLC conditions.
# [2] = Control of coloration in an aqueous solution formulation containing sodium carbonate (absorbance 380 nm); type: physicochemical; conditions: for change in absorbance, just after dissolution / change in absorbance, preservation time 1 hr / change in absorbance, preservation time 2 hr / change in absorbance, preservation time 3 hr / change in absorbance, preservation time 4 hr / change in absorbance, preservation time 5 hr / change in absorbance, preservation time 6 hr: 25° C., 380 nm
# Experimental: Multiple vials were prepared, and sodium carbonate, Compound A and imipenem in amounts indicated in Table 14 were weighed, respectively and each mixture was put in each vial. A physiological saline (100 ml) was added to each vial to be dissolved. Coloration (change of color) just after dissolution and when the solution was preserved at one hour intervals for 6 hours at 25° C. were measured by absorbency on Compound A and imipenem.
# • Condition of measurement by spectrophotometer • cell: quartz 12.5 mm×12.5 mm×45 mm, capacity 3.5 ml • wavelength: 380 nm • measurement temperature: 25° C. • instrument: UV-2200A (Shimadzu)
# The numbers described in columns of “just after dissolution” and each “preservation time” on Table 15 show values of change in absorbance just after dissolution when measured under the above conditions.
# [3] = Comp. A 0.5 g/vial + sodium bicarbonate 0.0 mg/vial in physiological saline 100 ml
# [4] = Comp. A 0.5 g/vial + sodium bicarbonate 1.0 mg/vial in physiological saline 100 ml
# [5] = Comp. A 0.5 g/vial + sodium bicarbonate 2.5 mg/vial in physiological saline 100 ml
# [6] = Comp. A 0.5 g/vial + sodium bicarbonate 5.0 mg/vial in physiological saline 100 ml
# [7] = Comp. A 0.5 g/vial + sodium bicarbonate 10 mg/vial in physiological saline 100 ml
# [8] = Comp. A 0.5 g/vial + sodium bicarbonate 15 mg/vial in physiological saline 100 ml
# [9] = Comp. A 0.5 g/vial + sodium bicarbonate 20 mg/vial in physiological saline 100 ml
# [10] = Comp. A 0.5 g/vial + sodium bicarbonate 50 mg/vial in physiological saline 100 ml
# [11] = Comp. A 0.5 g/vial + sodium bicarbonate 100 mg/vial in physiological saline 100 ml
# [12] = 0.5 g/vial + sodium carbonate 0.0 mg/vial in physiological saline 100 ml
# [13] = 0.5 g/vial + sodium carbonate 1.0 mg/vial in physiological saline 100 ml
# [14] = 0.5 g/vial + sodium carbonate 1.5 mg/vial in physiological saline 100 ml
# [15] = 0.5 g/vial + sodium carbonate 2.0 mg/vial in physiological saline 100 ml
# [16] = 0.5 g/vial + sodium carbonate 2.5 mg/vial in physiological saline 100 ml
# [17] = 0.5 g/vial + sodium carbonate 3.0 mg/vial in physiological saline 100 ml
structure (smiles),measurement,setting,value
"C[C@H]1C=C(c2csc(SC3=C(C(=O)O)N4C(=O)[C@H]([C@@H](C)O)[C@H]4[C@H]3C)n2)CN1 [Compound A, (4R,5S,6S)-6-[(1R)-1-hydroxyethyl]-4-methyl-3-({4-[(5S)-5-methyl-2,5-dihydro-1H-pyrrol-3-yl]-1,3-thiazol-2-yl}sulfanyl)-7-oxo-1-azabicyclo[3.2.0]hept-2-ene-2-carboxylic acid]",Comp. A after preservation for 6 hrs. at 25° C.,[1]; [3],95.8 area %
same,Comp. A just after dissolution,[1]; [3],98.8 area %
same,Comp. B after preservation for 6 hrs. at 25° C.,[1]; [3],3.0 area %
same,Comp. B just after dissolution,[1]; [3],0.7 area %
same,Comp. C after preservation for 6 hrs. at 25° C.,[1]; [3],0.5 area %
same,Comp. C just after dissolution,[1]; [3],0.0 area %
same,Comp. A after preservation for 6 hrs. at 25° C.,[1]; [4],96.6 area %
same,Comp. A just after dissolution,[1]; [4],98.9 area %
same,Comp. B after preservation for 6 hrs. at 25° C.,[1]; [4],2.7 area %
same,Comp. B just after dissolution,[1]; [4],0.7 area %
same,Comp. C after preservation for 6 hrs. at 25° C.,[1]; [4],0.2 area %
same,Comp. C just after dissolution,[1]; [4],0.0 area %
same,Comp. A after preservation for 6 hrs. at 25° C.,[1]; [5],96.6 area %
same,Comp. A just after dissolution,[1]; [5],98.9 area %
same,Comp. B after preservation for 6 hrs. at 25° C.,[1]; [5],2.8 area %
same,Comp. B just after dissolution,[1]; [5],0.7 area %
same,Comp. C after preservation for 6 hrs. at 25° C.,[1]; [5],≤ 0.1 area %
same,Comp. C just after dissolution,[1]; [5],0.0 area %
same,Comp. C after preservation for 6 hrs. at 25° C.,"[1]; Comp. A 0.5 g/vial + sodium bicarbonate 2.5 mg/vial in physiological saline 100 ml, listed as Comp. A",0.0 area %
same,Comp. A after preservation for 6 hrs. at 25° C.,[1]; [6],96.3 area %
same,Comp. A just after dissolution,[1]; [6],98.9 area %
same,Comp. B after preservation for 6 hrs. at 25° C.,[1]; [6],3.0 area %
same,Comp. B just after dissolution,[1]; [6],0.6 area %
same,Comp. C after preservation for 6 hrs. at 25° C.,[1]; [6],0.0 area %
same,Comp. C just after dissolution,[1]; [6],0.0 area %
same,Comp. A after preservation for 6 hrs. at 25° C.,[1]; [7],95.9 area %
same,Comp. A just after dissolution,[1]; [7],98.9 area %
same,Comp. B after preservation for 6 hrs. at 25° C.,[1]; [7],3.5 area %
same,Comp. B just after dissolution,[1]; [7],0.7 area %
same,Comp. C after preservation for 6 hrs. at 25° C.,[1]; [7],0.0 area %
same,Comp. C just after dissolution,[1]; [7],0.0 area %
same,Comp. A after preservation for 6 hrs. at 25° C.,[1]; [8],95.4 area %
same,Comp. A just after dissolution,[1]; [8],98.9 area %
same,Comp. B after preservation for 6 hrs. at 25° C.,[1]; [8],3.9 area %
same,Comp. B just after dissolution,[1]; [8],0.6 area %
same,Comp. C after preservation for 6 hrs. at 25° C.,[1]; [8],0.0 area %
same,Comp. C just after dissolution,[1]; [8],0.0 area %
same,Comp. A after preservation for 6 hrs. at 25° C.,[1]; [9],95.2 area %
same,Comp. A just after dissolution,[1]; [9],98.8 area %
same,Comp. B after preservation for 6 hrs. at 25° C.,[1]; [9],4.1 area %
same,Comp. B just after dissolution,[1]; [9],0.6 area %
same,Comp. C after preservation for 6 hrs. at 25° C.,[1]; [9],0.0 area %
same,Comp. C just after dissolution,[1]; [9],0.0 area %
same,Comp. A after preservation for 6 hrs. at 25° C.,[1]; [10],93.5 area %
same,Comp. A just after dissolution,[1]; [10],98.6 area %
same,Comp. B after preservation for 6 hrs. at 25° C.,[1]; [10],5.5 area %
same,Comp. B just after dissolution,[1]; [10],0.7 area %
same,Comp. C after preservation for 6 hrs. at 25° C.,[1]; [10],0.0 area %
same,Comp. C just after dissolution,[1]; [10],0.0 area %
same,Comp. A after preservation for 6 hrs. at 25° C.,[1]; [11],92.4 area %
same,Comp. A just after dissolution,[1]; [11],98.9 area %
same,Comp. B after preservation for 6 hrs. at 25° C.,[1]; [11],6.6 area %
same,Comp. B just after dissolution,[1]; [11],0.6 area %
same,Comp. C after preservation for 6 hrs. at 25° C.,[1]; [11],0.0 area %
same,Comp. C just after dissolution,[1]; [11],0.0 area %
same,reduction of amount of Compound A,[1]; sodium bicarbonate increased to 20 mg from 15 mg per Compound A 500 mg,0.2%
same,reduction of amount of Compound A,[1]; sodium bicarbonate increased to 50 mg from 20 mg per Compound A 500 mg,1.7%
same,coloration by the visual inspection compared with a solution just after dissolution,"[2]; 1.5 mg additive per 500 mg (printed sodium bicarbonate; Table 15: sodium carbonate), 6 hours at 25° C.",coloration was not observed by the visual inspection
same,"change in absorbance, just after dissolution",[2]; [12],0.00 Abs
same,"change in absorbance, preservation time 1 hr",[2]; [12],0.01 Abs
same,"change in absorbance, preservation time 2 hr",[2]; [12],0.03 Abs
same,"change in absorbance, preservation time 3 hr",[2]; [12],0.05 Abs
same,"change in absorbance, preservation time 4 hr",[2]; [12],0.07 Abs
same,"change in absorbance, preservation time 5 hr",[2]; [12],0.11 Abs
same,"change in absorbance, preservation time 6 hr",[2]; [12],0.13 Abs
same,"change in absorbance, just after dissolution",[2]; [13],0.00 Abs
same,"change in absorbance, preservation time 1 hr",[2]; [13],0.00 Abs
same,"change in absorbance, preservation time 2 hr",[2]; [13],0.00 Abs
same,"change in absorbance, preservation time 3 hr",[2]; [13],0.01 Abs
same,"change in absorbance, preservation time 4 hr",[2]; [13],0.02 Abs
same,"change in absorbance, preservation time 5 hr",[2]; [13],0.03 Abs
same,"change in absorbance, preservation time 6 hr",[2]; [13],0.04 Abs
same,"change in absorbance, just after dissolution",[2]; [14],0.00 Abs
same,"change in absorbance, preservation time 1 hr",[2]; [14],0.00 Abs
same,"change in absorbance, preservation time 2 hr",[2]; [14],0.00 Abs
same,"change in absorbance, preservation time 3 hr",[2]; [14],0.00 Abs
same,"change in absorbance, preservation time 4 hr",[2]; [14],0.00 Abs
same,"change in absorbance, preservation time 5 hr",[2]; [14],0.01 Abs
same,"change in absorbance, preservation time 6 hr",[2]; [14],0.02 Abs
same,"change in absorbance, just after dissolution",[2]; [15],0.00 Abs
same,"change in absorbance, preservation time 1 hr",[2]; [15],0.00 Abs
same,"change in absorbance, preservation time 2 hr",[2]; [15],0.00 Abs
same,"change in absorbance, preservation time 3 hr",[2]; [15],0.00 Abs
same,"change in absorbance, preservation time 4 hr",[2]; [15],0.00 Abs
same,"change in absorbance, preservation time 5 hr",[2]; [15],0.00 Abs
same,"change in absorbance, preservation time 6 hr",[2]; [15],0.01 Abs
same,"change in absorbance, just after dissolution",[2]; [16],0.00 Abs
same,"change in absorbance, preservation time 1 hr",[2]; [16],0.00 Abs
same,"change in absorbance, preservation time 2 hr",[2]; [16],0.00 Abs
same,"change in absorbance, preservation time 3 hr",[2]; [16],0.00 Abs
same,"change in absorbance, preservation time 4 hr",[2]; [16],0.00 Abs
same,"change in absorbance, preservation time 5 hr",[2]; [16],0.00 Abs
same,"change in absorbance, preservation time 6 hr",[2]; [16],0.00 Abs
same,"change in absorbance, just after dissolution",[2]; [17],0.00 Abs
same,"change in absorbance, preservation time 1 hr",[2]; [17],0.00 Abs
same,"change in absorbance, preservation time 2 hr",[2]; [17],0.00 Abs
same,"change in absorbance, preservation time 3 hr",[2]; [17],0.00 Abs
same,"change in absorbance, preservation time 4 hr",[2]; [17],0.00 Abs
same,"change in absorbance, preservation time 5 hr",[2]; [17],0.00 Abs
same,"change in absorbance, preservation time 6 hr",[2]; [17],0.00 Abs
same,suppression of coloration of the solution,[2]; at least 1.5 mg (0.003 part by weight) of sodium carbonate per 500 mg,observed
